pIC50: −log10 of the molar value. Blank lines part the entries; values can stand above or below the compound they belong to.
Legend:
hOX1R = hOX1R (Homo sapiens, UniProt O43613); test: FLIPR Ca2+ Flux Assay, orexin-1 receptor; assay type: cell-based; settings: CHO cells expressing orexin-1 receptor; agonist 70 pM Ala-6,12 orexin-A
human orexin-2 receptor = human orexin-2 receptor (Homo sapiens (Human), UniProt O43614); test: FLIPR Ca2+ Flux Assay, orexin-2 receptor; assay type: cell-based; settings: CHO cells expressing the human orexin-2 receptor; agonist 70 pM Ala-6,12 orexin-A; read-out: hOX2R FLIPR IC50
Protocol: In a typical experiment the OX1 and OX2 receptor antagonistic activity of the compounds of the present invention was determined in accordance with the following experimental method. For intracellular calcium measurements, Chinese hamster ovary (CHO) cells expressing the rat orexin-1 receptor or the human orexin-2 receptor, are grown in Iscove's modified DMEM containing 2 mM L-glutamine, […], 1% hypoxanthine-thymidine supplement, 100 U/ml penicillin, 100 μg/ml streptomycin and 10% heat-inactivated fetal calf serum (FCS). The cells are seeded at 20,000 cells/well into Becton-Dickinson black 384-well clear bottom sterile plates coated with poly-D-lysine. All reagents were from GIBCO-Invitrogen Corp. The seeded plates are incubated overnight at 37° C. and 5% CO2. Ala-6,12 human orexin-A as the agonist is prepared as a 1 mM stock solution in 1% bovine serum albumin (BSA) and diluted in assay buffer (HBSS containing 20 mM HEPES, 0.1% BSA and 2.5 mM probenecid, pH7.4) for use in the assay at a final concentration of 70 pM. Test compounds are prepared as 10 mM stock solution in DMSO, then diluted in 384-well plates, first in DMSO, then assay buffer. On the day of the assay, cells are washed 3 times with 100 μl assay buffer and then incubated for 60 min (37° C., 5% CO2) in 60 μl assay buffer containing 1 μM Fluo-4 AM ester, 0.02% pluronic acid, and 1% BSA. The dye loading solution is then aspirated and cells are washed 3 times with 100 μl assay buffer. 30 μl of that same buffer is left in each well. Within the Fluorescent Imaging Plate Reader (FLIPR, Molecular Devices), test compounds are added to the plate in a volume of 25 μl, incubated for 5 min and finally 25 μl of agonist is added. Fluorescence is measured for each well at 1 second intervals for 5 minutes and the height of each fluorescence peak is compared to the height of the fluorescence peak induced by 70 pM Ala-6,12 orexin-A with buffer in place of antagonist. […] Alternatively, compound potency can be assessed by a radioligand binding assay (described in Bergman et. al. Bioorg. Med. Chem. Lett. 2008, 18, 1425-1430) in which the inhibition constant (Ki) is determined in membranes prepared from CHO cells expressing either the OX1 or OX2 receptor. The intrinsic orexin receptor antagonist activity of a compound which may be used in the present invention may be determined by these assays.

Sequence of human orexin-2 receptor (O43614 whole entry): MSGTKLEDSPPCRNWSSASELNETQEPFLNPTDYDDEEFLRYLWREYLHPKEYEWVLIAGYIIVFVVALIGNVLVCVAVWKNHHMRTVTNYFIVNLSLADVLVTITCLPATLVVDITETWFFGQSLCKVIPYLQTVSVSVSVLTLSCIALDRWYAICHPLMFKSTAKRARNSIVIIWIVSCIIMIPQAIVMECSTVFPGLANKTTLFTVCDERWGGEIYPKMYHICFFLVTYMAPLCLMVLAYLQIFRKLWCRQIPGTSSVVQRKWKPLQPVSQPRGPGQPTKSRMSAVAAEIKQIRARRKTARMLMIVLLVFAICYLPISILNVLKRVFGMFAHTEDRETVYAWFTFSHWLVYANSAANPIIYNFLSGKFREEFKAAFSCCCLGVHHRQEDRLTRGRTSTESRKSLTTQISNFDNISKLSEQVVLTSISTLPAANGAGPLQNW

Compound: CCN(CCc1ccnc(C(C)(C)O)n1)C(=O)c1ccccc1-n1nccn1 [Example 40, N-Ethyl-N-(2-(2-(2-hydroxypropan-2-yl)pyrimidin-4-yl)ethyl)-2-(2H-1,2,3-triazol-2-yl)benzamide]
- pIC50 (hOX1R): < 5.00
- pIC50 (human orexin-2 receptor): 7.13

- pIC50 (hOX1R): 5.49
- pIC50 (human orexin-2 receptor): 7.07
Compound: CCN(CCc1ncc(C(C)(C)O)cn1)C(=O)c1ccccc1-n1nccn1 [Example 41, N-Ethyl-N-(2-(5-(2-hydroxypropan-2-yl)pyrimidin-2-yl)ethyl)-2-(2H-1,2,3-triazol-2-yl)benzamide]

- pIC50 (hOX1R): < 5.00
- pIC50 (human orexin-2 receptor): 6.78
Compound: CCN(CCc1nccc(C(C)O)n1)C(=O)c1ccccc1-n1nccn1 (centres unmarked) [Example 43, N-Ethyl-N-(2-(4-(1-hydroxyethyl)pyrimidin-2-yl)ethyl)-2-(2H-1,2,3-triazol-2-yl)benzamide]

Compound: CCN(CCc1nccc(C(C)(C)O)n1)C(=O)c1ccccc1-n1nccn1 [Example 44, N-Ethyl-N-(2-(4-(2-hydroxypropan-2-yl)pyrimidin-2-yl)ethyl)-2-(2H-1,2,3-triazol-2-yl)benzamide]
- pIC50 (hOX1R): < 5.00
- pIC50 (human orexin-2 receptor): 7.24

- pIC50 (hOX1R): < 5.00
- pIC50 (human orexin-2 receptor): 6.77
Compound: CCN(CCc1cnc(C(C)(C)O)cn1)C(=O)c1ccccc1-n1nccn1 [Example 46, N-Ethyl-N-(2-(5-(2-hydroxypropan-2-yl)pyrazin-2-yl)ethyl)-2-(2H-H-1,2,3-triazol-2-yl)benzamide]

- pIC50 (hOX1R): 5.81
- pIC50 (human orexin-2 receptor): 7.80
Compound: CCN(CCc1cc(C)c(C(C)(C)O)cn1)C(=O)c1ccccc1-n1nccn1 [Example 47, N-Ethyl-N-(2-(5-(2-hydroxypropan-2-yl)-4-methylpyridin-2-yl)ethyl)-2-(2H-1,2,3-triazol-2-yl)benzamide]

Compound: CCN(CCc1ccc(C)c(C(C)(C)O)n1)C(=O)c1ccccc1-n1nccn1 [Example 48, N-Ethyl-N-(2-(6-(2-hydroxypropan-2-yl)-5-methylpyridin-2-yl)ethyl)-2-(2H-1,2,3-triazol-2-yl)benzamide]
- pIC50 (hOX1R): 6.10
- pIC50 (human orexin-2 receptor): 8.22

Compound: CCN(CCc1ccc(C(C)(C)O)cn1)C(=O)c1cccnc1-n1cccn1 [Example 49, N-Ethyl-N-{2-[5-(1-hydroxy-1-methylethyl)pyridin-2-yl]ethyl}-2-(1H-pyrazol-1-yl)pyridine-3-carboxamide]
- pIC50 (hOX1R): < 5.00
- pIC50 (human orexin-2 receptor): 6.60

Compound: CCN(CCc1ccc(C(C)(C)O)cn1)C(=O)c1ccccc1OC(F)(F)F [Example 50, N-ethyl-N-{2-[5-(1-hydroxy-1-methylethyl)pyridin-2-yl]ethyl}-2-(trifluoromethoxy)benzamide]
- pIC50 (hOX1R): < 5.00
- pIC50 (human orexin-2 receptor): 6.62

Compound: CCN(CCc1ccc(C(C)(C)O)cn1)C(=O)c1ccccc1N1CCCC1 [Example 51, N-ethyl-N-{2-[5-(1-hydroxy-1-methylethyl)pyridin-2-yl]ethyl}-2-pyrrolidin-1-ylbenzamide]
- pIC50 (hOX1R): < 5.00
- pIC50 (human orexin-2 receptor): 7.12

Compound: CCN(CCc1ccc(C(C)(C)O)cn1)C(=O)c1ccccc1-n1cccn1 [Example 53, N-ethyl-N-{2-[5-(1-hydroxy-1-methylethyl)pyridin-2-yl]ethyl}-2-(1H-pyrazol-1-yl)benzamide]
- pIC50 (hOX1R): < 5.00
- pIC50 (human orexin-2 receptor): 6.74

Compound: CCN(CCc1ccc(C(C)(C)O)cn1)C(=O)c1ccccc1CC(F)(F)F [Example 54, N-ethyl-N-{2-[5-(1-hydroxy-1-methylethyl)pyridin-2-yl]ethyl}-2-(2,2,2-trifluoroethyl)benzamide]
- pIC50 (hOX1R): < 5.00
- pIC50 (human orexin-2 receptor): 6.36

Compound: CCN(CCc1ccc(C(C)(C)O)cn1)C(=O)c1ccccc1-n1ncnn1 [Example 55, N-ethyl-N-{2-[5-(1-hydroxy-1-methylethyl)pyridin-2-yl]ethyl}-2-(2H-tetrazol-2-yl)benzamide]
- pIC50 (hOX1R): < 5.00
- pIC50 (human orexin-2 receptor): 6.41

Compound: CCN(CCc1ccc(C(C)(C)O)cn1)C(=O)c1cccnc1OCC(F)(F)F [Example 56, N-ethyl-N-{2-[5-(1-hydroxy-1-methylethyl)pyridin-2-yl]ethyl}-2-(2,2,2-trifluoroethoxy)pyridine-3-carboxamide]
- pIC50 (hOX1R): < 5.00
- pIC50 (human orexin-2 receptor): 6.37

Compound: CCOc1ccccc1C(=O)N(CC)CCc1ccc(C(C)(C)O)cn1 [Example 57, 2-ethoxy-N-ethyl-N-{2-[5-(1-hydroxy-1-methylethyl)pyridin-2-yl]ethyl}benzamide]
- pIC50 (hOX1R): < 5.00
- pIC50 (human orexin-2 receptor): 6.26

Compound: CCN(CCc1ccc(C(C)(C)O)cn1)C(=O)c1cccnc1-c1ccccc1 [Example 58, N-ethyl-N-{2-[5-(1-hydroxy-1-methylethyl)pyridin-2-yl]ethyl}-2-phenylpyridine-3-carboxamide]
- pIC50 (hOX1R): < 5.00
- pIC50 (human orexin-2 receptor): 6.48

Compound: CCN(CCc1ccc(C(C)(C)O)cn1)C(=O)c1ccc(OC)nc1C1CC1 [Example 59, 2-cyclopropyl-N-ethyl-N-{2-[5-(1-hydroxy-1-methylethyl)pyridin-2-yl]ethyl}-6-methoxypyridine-3-carboxamide]
- pIC50 (hOX1R): < 5.00
- pIC50 (human orexin-2 receptor): 7.26

Compound: CCN(CCc1ccc(C(C)(C)O)cn1)C(=O)c1ccccc1C1CC1 [Example 60, 2-cyclopropyl-N-ethyl-N-{2-[5-(1-hydroxy-1-methylethyl)pyridin-2-yl]ethyl}benzamide]
- pIC50 (hOX1R): < 5.00
- pIC50 (human orexin-2 receptor): 6.61

Compound: CCN(CCc1ccc(C(C)(C)O)cn1)C(=O)c1ccc(F)cc1-n1nccn1 [Example 61, N-ethyl-4-fluoro-N-{2-[5-(1-hydroxy-1-methylethyl)pyridin-2-yl]ethyl}-2-(2H-1,2,3-triazol-2-yl)benzamide]
- pIC50 (hOX1R): < 5.00
- pIC50 (human orexin-2 receptor): 7.59

Compound: CCN(CCc1ccc(C(C)(C)O)cn1)C(=O)c1ccccc1C1CCC1 [Example 62, 2-cyclobutyl-N-ethyl-N-{2-[5-(1-hydroxy-1-methylethyl)pyridin-2-yl]ethyl}benzamide]
- pIC50 (hOX1R): < 5.00
- pIC50 (human orexin-2 receptor): 7.21

Compound: CCN(CCc1ccc(C(C)(C)O)cn1)C(=O)c1ccccc1C1CC1(F)F (centres unmarked) [Example 63, 2-(2,2-difluorocyclopropyl)-N-ethyl-N-{2-[5-(1-hydroxy-1-methylethyl)pyridin-2-yl]ethyl}benzamide]
- pIC50 (hOX1R): < 5.00
- pIC50 (human orexin-2 receptor): 7.42

Compound: CCN(CCc1ccc(C(C)(C)O)cn1)C(=O)c1cccnc1OCC(F)F [Example 64, 2-(2,2-difluoroethoxy)-N-ethyl-N-{2-[5-(1-hydroxy-1-methylethyl)pyridin-2-yl]ethyl}pyridine-3-carboxamide]
- pIC50 (hOX1R): < 5.00
- pIC50 (human orexin-2 receptor): 6.47
